According to patent publication US9512139B2, “Conformationally constrained, fully synthetic macrocyclic compounds” (POLYPHOR AG, priority 2009, dated 2016):
Where two headings read alike, the source gives them in different places.

Legend:
[1] = amide bond
[2] = molecular target: T1, Prostaglandin F (FP) Receptor (Homo sapiens, UniProt P43088); experiment: Ca2+ assay (FLIPR) for the GPCR prostaglandin F (FP) receptor, agonist and antagonist mode; assay type: cell-based
T1 construct: host or cells: Ca2+ optimized hematopoietic cell lines (rat)
T1 sequence (P43088 whole entry): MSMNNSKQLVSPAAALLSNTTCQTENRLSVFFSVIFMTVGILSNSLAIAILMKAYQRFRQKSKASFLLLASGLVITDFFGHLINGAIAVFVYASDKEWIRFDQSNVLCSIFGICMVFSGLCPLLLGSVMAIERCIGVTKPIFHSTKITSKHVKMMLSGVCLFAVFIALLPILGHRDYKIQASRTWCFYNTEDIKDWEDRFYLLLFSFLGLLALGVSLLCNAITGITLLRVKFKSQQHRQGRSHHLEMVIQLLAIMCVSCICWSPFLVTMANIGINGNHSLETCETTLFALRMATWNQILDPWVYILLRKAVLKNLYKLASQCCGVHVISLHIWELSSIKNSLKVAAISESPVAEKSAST
How it was run: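 Ca2+-optimized rat hematopoietic cells carrying the receptor were loaded with Fluo-8 in HBSS/20 mM HEPES/2.5 mM probenecid and read on FLIPR. Agonist mode: 10 min compound incubation at 25 °C, % activation relative to Emax. Antagonist mode: stimulation at EC80 of the reference agonist (prostaglandin F2α for FP, 2MeSATP for P2Y1), fluorescence monitored 180 s.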

[3] = Metabolic stability assay, CD-1 mouse microsomes; assay type: in vitro ADME; conditions: CD-1, mouse, microsomes; for half-life at 10 µM: both sexes; for Metabolic Stability 60 min mouse [% remain.]: both, 1 h, 10 µM
in vitro [4] = assay type: in vitro ADME, human; conditions: human, plasma; for Plasma Stability T½ [min] hum / Plasma Stability 240 min hum [% remain.]: 10 µM; for Plasma Stability 240 min hum [% remain.]: 4 h
[5] = Metabolic stability assay, human microsomes; assay type: in vitro ADME; conditions: human, microsomes; for half-life at 10 µM: both sexes; for Metabolic Stability 60 min hum [% remain.]: both, 1 h, 10 µM
in vitro [6] = assay type: in vitro ADME, mouse; conditions: both, CD-1, mouse, plasma, 10 µM; for Plasma Stability 240 min mouse [% remain.]: 4 h
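For Plasma Stability 240 min mouse [% remain.] in this document: sodium citrate stabilized mouse plasma, parent compound quantified by HPLC/MS/MS relative to its peak area at time zero, run in triplicate.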
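For Plasma Stability T½ [min] mouse in this document: sodium citrate stabilized mouse plasma, parent compound quantified by HPLC/MS/MS relative to its peak area at time zero, run in triplicate.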

Row | IC50 [2] [nM] | inhibition at 10 µM [2] [%] | half-life at 10 µM [3] [min] | Metabolic Stability 60 min mouse [% remain.] [3] [% remain.] | Plasma Stability T½ [min] hum (in vitro [4]) [min] | Plasma Stability 240 min hum [% remain.] (in vitro [4]) | half-life at 10 µM [5] [min] | Metabolic Stability 60 min hum [% remain.] [5] [% remain.] | SMILES | also measured
1 | – | – | – | – | – | – | – | – | CN1C(=O)c2cc(F)ccc2OC[C@@H]2CN(C(=O)OC(C)(C)C)CCN2C(=O)CC[C@H]1C(=O)OCc1ccccc1 | ring closure, yield of all isomers ([1]; from CN(C(=O)c1cc(F)ccc1OC[C@@H]1CN(C(=O)OC(C)(C)C)CCN1)[C@@H](CCC(=O)O)C(=O)OCc1ccccc1, T3P, CH2Cl2, 0.57 mM, 25.0 °C, 20.0 h): 77%
2 | – | – | – | – | – | – | – | – | CN1CCC(=O)N2C[C@H](NC(=O)OC(C)(C)C)C[C@H]2COc2ccc(F)cc2C(=O)N(C)[C@H](C(=O)OCc2ccccc2)CCC1=O | ring closure, yield of all isomers ([1]; from CNCCC(=O)N1C[C@H](NC(=O)OC(C)(C)C)C[C@H]1COc1ccc(F)cc1C(=O)N(C)[C@@H](CCC(=O)O)C(=O)OCc1ccccc1, T3P / i-Pr2NEt, CH2Cl2, 10.6 mM): 82%
3 | – | – | – | – | – | – | – | – | CC(C)(C)OC(=O)N[C@@H]1C[C@H]2COc3ccc(Br)cc3C(=O)NC3(CCCC3)C(=O)N[C@@H](Cc3ccc4ccccc4c3)CC(=O)N2C1 | ring closure, yield of all isomers ([1]; from CC(C)(C)OC(=O)N[C@H]1CN[C@H](COc2ccc(Br)cc2C(=O)NC2(C(=O)N[C@H](CC(=O)O)Cc3ccc4ccccc4c3)CCCC2)C1, T3P, i-Pr2NEt, CH2Cl2, 1.0 mM, 25.0 °C, 2.0 h): 68%
4 | – | – | – | – | – | – | – | – | CN1C(=O)c2cc(F)ccc2OC[C@@H]2C[C@H](NC(=O)OCC[Si](C)(C)C)CN2C(=O)CC[C@H]1C(=O)OCc1ccccc1 | ring closure, yield of all isomers ([1]; from CN(C(=O)c1cc(F)ccc1OC[C@@H]1C[C@H](NC(=O)OCC[Si](C)(C)C)CN1)[C@@H](CCC(=O)O)C(=O)OCc1ccccc1, T3P, CH2Cl2, 10.0 mM, 25.0 °C, 20.0 h): 61%
5 | 59 | 99 | 14 | 14 | > 240 | 100 | 2 | 1 | CCCCCCCCCC(=O)N[C@H]1CCCN(C)C(=O)c2cccc(c2)OC[C@@H]2C[C@H](NC(=O)Nc3cccc(N(C)C)c3)CN2C1=O [Ex. 511, N-[(4S,6S,10S)-6-({[3-(dimethylamino)anilino]carbonyl}amino)-14-methyl-9,15-dioxo-2-oxa-8,14-diazatricyclo[14.3.1.0^4,8]icosa-1(20),16,18-trien-10-yl]decanamide] | –
6 | – | – | – | – | – | – | – | – | CN1C[C@H](NC(=O)OCc2ccccc2)C(=O)N(C)CC(=O)N2C[C@H](NC(=O)OCC[Si](C)(C)C)C[C@H]2COc2cccc(c2)C1=O | ring closure, yield of all isomers ([1]; from CN(C[C@H](NC(=O)OCc1ccccc1)C(=O)N(C)CC(=O)O)C(=O)c1cccc(OC[C@@H]2C[C@@H](NC(=O)OCC[Si](C)(C)C)CN2)c1, FDPP, DMF, 10.16 mM): 68%
7 | – | – | – | – | – | – | – | – | Cc1c2c3cc(ccc3n1C)OC[C@@H]1C[C@@H](NC(=O)OC(C)(C)C)CN1C(=O)CN(C)C(=O)CC[C@@H](C(=O)OCc1ccccc1)N(C)C2=O | ring closure, yield of all isomers ([1]; from CNCC(=O)N1C[C@H](NC(=O)OC(C)(C)C)C[C@H]1COc1ccc2c(c1)c(C(=O)N(C)[C@@H](CCC(=O)O)C(=O)OCc1ccccc1)c(C)n2C, T3P, CH2Cl2, 9.85 mM): 58%
8 | – | – | – | – | – | – | – | – | CN1CCC[C@H](NC(=O)OCc2ccccc2)C(=O)N2C[C@@H](OCc3ccc(Br)cc3)C[C@H]2CSc2cccc(c2)C1=O | ring closure, yield of all isomers ([1]; from CN(CCC[C@H](NC(=O)OCc1ccccc1)C(=O)O)C(=O)c1cccc(SC[C@@H]2C[C@H](OCc3ccc(Br)cc3)CN2)c1, T3P, CH2Cl2, 1.96 mM, 25.0 °C, 3.0 h): 79%
9 | 640 | 47 | 13 | 3 | > 240 | 100 | 21 | 9 | CN1CCC[C@H](NC(=O)Cc2cccc3ccccc23)C(=O)N2C[C@@H](NC(=O)Cc3ccc4ccccc4c3)C[C@H]2COc2cccc(c2)C1=O [Ex. 505, N-[(4S,6S,10S)-14-methyl-6-{[2-(2-naphthyl)acetyl]amino}-9,15-dioxo-2-oxa-8,14-diazatricyclo[14.3.1.0^4,8]icosa-1(20),16,18-trien-10-yl]-2-(1-naphthyl)acetamide] | Plasma Stability T½ [min] mouse (in vitro [6]): > 240 min; Plasma Stability 240 min mouse [% remain.] (in vitro [6]): 98 % remain.
10 | – | – | – | – | – | – | – | – | CN1CCC[C@H](NC(=O)OCc2ccccc2)C(=O)N2C[C@@H](OCc3ccc(Br)cc3)C[C@H]2COc2cccc(c2)C1=O | ring closure, yield of all isomers ([1]; from CN(CCC[C@H](NC(=O)OCc1ccccc1)C(=O)O)C(=O)c1cccc(OC[C@@H]2C[C@H](OCc3ccc(Br)cc3)CN2)c1, T3P, CH2Cl2, 5.5 mM, 25.0 °C, 20.0 h): 57%
11 | – | – | – | – | – | – | – | – | CN1CC(=O)N2C[C@H](NC(=O)OC(C)(C)C)C[C@H]2COc2ccc(cc2)C(=O)N(C)[C@H](C(=O)OCc2ccccc2)CCC1=O | ring closure, yield of all isomers ([1]; from CNCC(=O)N1C[C@H](NC(=O)OC(C)(C)C)C[C@H]1COc1ccc(C(=O)N(C)[C@@H](CCC(=O)O)C(=O)OCc2ccccc2)cc1, T3P, i-Pr2NEt, CH2Cl2, 1.05 mM, 3.0 h): 54%
12 | – | – | – | – | – | – | – | – | CN1C[C@@H](NC(=O)OCc2ccccc2)C(=O)N(C)CC(=O)N2C[C@@H](NC(=O)OC(C)(C)C)C[C@H]2COc2cccc(c2)C1=O | ring closure, yield of all isomers ([1]; from CNCC(=O)N1C[C@@H](NC(=O)OC(C)(C)C)C[C@H]1COc1cccc(C(=O)N(C)C[C@@H](NC(=O)OCc2ccccc2)C(=O)O)c1, FDPP, DMF, 1.0 mM, 60.0 °C, 20.0 h): 78%
13 | – | – | – | – | – | – | – | – | CN1CC[C@H](NC(=O)OCc2ccccc2)C(=O)N2C[C@@H](NC(=O)OCC[Si](C)(C)C)C[C@H]2COc2cccc(c2)C1=O | ring closure, yield of all isomers ([1]; from CN(CC[C@H](NC(=O)OCc1ccccc1)C(=O)O)C(=O)c1cccc(OC[C@@H]2C[C@H](NC(=O)OCC[Si](C)(C)C)CN2)c1, FDPP, DMF, 0.97 mM): 43%
14 | 94 | 99 | 25 | 29 | > 240 | 100 | 16 | 13 | CN1CCC[C@H](NC(=O)Cc2cccc(-c3ccccc3)c2)C(=O)N2C[C@@H](NC(=O)Nc3cccc(N(C)C)c3)C[C@H]2COc2cccc(c2)C1=O [Ex. 525, 2-[1,1′-biphenyl]-3-yl-N-[(4S,6S,10S)-6-({[3-(dimethylamino)anilino]carbonyl}amino)-14-methyl-9,15-dioxo-2-oxa-8,14-diazatricyclo[14.3.1.0^4,8]icosa-1(20),16,18-trien-10-yl]acetamide] | –
15 | 204 | 73 | 20 | 24 | – | 26 | 22 | 23 | CN1CCC[C@H](NS(=O)(=O)c2ccc(-c3ccccc3)cc2)C(=O)N2C[C@@H](NC(=O)Cc3ccc4ccccc4c3)C[C@H]2COc2cccc(c2)C1=O [Ex. 527, N-[(4S,6S,10S)-10-[([1,1′-biphenyl]-4-ylsulfonyl)amino]-14-methyl-9,15-dioxo-2-oxa-8,14-diazatricyclo[14.3.1.0^4,8]icosa-1(20),16,18-trien-6-yl]-2-(2-naphthyl)acetamide] | half-life at 10 µM (in vitro [4]): 109 min
16 | 520 | 74 | 22 | 0 | > 240 | 66 | 15 | 0 | CN1CCC[C@H](NC(=O)OCc2ccccc2)C(=O)N2C[C@@H](NC(=O)Cc3ccc4ccccc4c3)C[C@H]2COc2cccc(c2)C1=O [Ex. 184, benzyl N-[(4S,6S,10S)-14-methyl-6-{[2-(2-naphthyl)acetyl]amino}-9,15-dioxo-2-oxa-8,14-diazatricyclo[14.3.1.0^4,8]icosa-1(20),16,18-trien-10-yl]carbamate] | Plasma Stability T½ [min] mouse (in vitro [6]): > 240 min; Plasma Stability 240 min mouse [% remain.] (in vitro [6]): 58 % remain.
17 | 120 | 97 | 12 | 10 | > 240 | 86 | 17 | 8 | CN1CCC[C@H](NC(=O)Cc2cccc3ccccc23)C(=O)N2C[C@@H](NC(=O)Nc3cccc(N(C)C)c3)C[C@H]2COc2cccc(c2)C1=O [Ex. 512, N-[(4S,6S,10S)-6-({[3-(dimethylamino)anilino]carbonyl}amino)-14-methyl-9,15-dioxo-2-oxa-8,14-diazatricyclo[14.3.1.0^4,8]icosa-1(20),16,18-trien-10-yl]-2-(1-naphthyl)acetamide] | –
18 | 28000 | 38 | 30 | 26 | > 240 | 91 | 27 | 12 | CN1C[C@H](NC(=O)OCc2ccccc2)C(=O)N(C)CC(=O)N2C[C@@H](NC(=O)Cc3c[nH]c4ccccc34)C[C@H]2COc2cccc(c2)C1=O [Ex. 200, benzyl N-[(4S,6S,13S)-6-{[2-(1H-indol-3-yl)acetyl]amino}-11,15-dimethyl-9,12,16-trioxo-2-oxa-8,11,15-triazatricyclo[15.3.1.0^4,8]henicosa-1(21),17,19-trien-13-yl]carbamate] | Plasma Stability T½ [min] mouse (in vitro [6]): > 240 min; Plasma Stability 240 min mouse [% remain.] (in vitro [6]): 100 % remain.
